Results published in ChEMBL document CHEMBL1142110, “Tenacibactins A-D, hydroxamate siderophores from a marine-derived bacterium, Tenacibaculum sp. A4K-17” (J Nat Prod, 2007).

Test: Iron-chelating activity after 4 hrs by CAS assay
Format: functional

SMILES | ED50 [µM]
CC(C)CC(=O)N(O)CCCCCNC(=O)CCC(=O)N(O)CCCCCNC(=O)CCC(=O)N(O)CCCCCN | 115
CC(C)CC(=O)N(O)CCCCCNC(=O)CCC(=O)O | > 1000
CC(C)CC(=O)N(O)CCCCCNC(=O)CCC(=O)N(O)CCCCCNC(=O)CCC(=O)O | 110
COC(=O)CCC(=O)NCCCCCN(O)C(=O)CC(C)C | > 1000
CC(=O)N(O)CCCCCNC(=O)CCC(=O)N(O)CCCCCNC(=O)CCC(=O)N(O)CCCCCN | 120
